# From US20230338347A1, “New Use of Inhibitors of the Notch Signalling Pathway” (Cellestia Biotech AG, priority 2020, published 2023)
# Experiments:
# Format in all cases: in vivo, human
# [1] = tested on: DTX-1 (Deltex E3 Ubiquitin Ligase 1); assay: Compassionate use T-ALL patient: DTX-1 gene expression by RTqPCR; conditions: at C2D15; time-dependent; target dose 500 mg once daily
# Description: DTX-1 is a positive regulator of NOTCH signalling pathway (C1D01_pre: Cycle 1 Day 1 predose; C1D01_1 h: Cycle 1 Day 1 1 hour post dose; C1D21_1 h: Cycle 1 Day 21 1 hour post dose; C2D15_1 h: Cycle 2 Day 15 1 hour post dose).
# Administration of 6-(4-Tert-Butylphenoxy)Pyridin-3-Amine induced a potent time-dependent downregulation of DTX-1 (Deltex E3 Ubiquitin Ligase 1) up to 95% at C2D15, indicative of NOTCH pathway downregulation. DTX-1 is a positive regulator of NOTCH signalling pathway
# Blood samples for PBMCs and cytokine analysis were collected using BD Vacutainer® Evacuated Blood Collection Tubes, and immediately centrifuged to separate the cell and plasma compartments for further analysis. Gene expression profiling was performed by standard RTqPCR. Cytokine analysis in the plasma compartment was performed with a standard commercially available ELISA method.
# [2] = tested on: NOTCH target genes; assay: NOTCH target gene expression in hair follicles of Phase 1 patients (Nanostring); conditions: several NOTCH target genes, starting at Cycle 2 day 1
# Excerpt: Hair follicles were obtained at pre-defined time points to measure changes in NOTCH target genes expression by 6-(4-Tert-Butylphenoxy)Pyridin-3-Amine treatment. NOTCH target gene down-regulation in hair follicles has been reported to be a robust and indicative biomarker that correlates with both clinical efficacy and the incidence of DLTs (Tanis K Q, et al. Clin Pharmacol Ther 2016; 99(4):370-80; Cook N, et al. BJC 2018; 118(6):793-801).
# Between 5 to 10 hairs were plucked to extract the complete and undamaged hairbulb (full hair follicle), and processed as described in Camidge D R, et al. Br J Cancer 2005; 92:1837-41 and Bradley B J, et al. Mol EcolNotes 2005; 5:961-4. RNA concentration was measured by Qubit (RNAHighSensitivity), and RNA integrity was evaluated on a RNA 6000 Pico chip. RNA samples were tested for gene expression profiling on a Nanostring platform.
# Table 1: NOTCH target down regulation in hair follicles and blood cells from Phase 1 patients. Target gene down regulation (CCND3, cyclin-D3; HES1, Hairy and enhance of split-1; HES4, Hairy and enhance of split-4; HESS, Hairy and enhance of split-5; HEY1, hes related family bHLH transcription factor with YRPW motif1; HEY2; hes related family bHLH transcription factor with YRPW motif 2; HEYL, hes-related family bHLH transcription factor with YRPW motif-like; IL7R-α, Interleukin-7 receptor subunit alpha; NOTCH1; NOTCH2; NRARP (NOTCH Regulated Ankyrin Repeat Protein): […]
# [3] = Phase I/IIA study: pharmacokinetics after oral administration
# Excerpt: This […] study is an ongoing first-in-human, open-label study investigating the safety, tolerability, pharmacokinetics (PK), pharmacodynamics (PD) and preliminary efficacy of the pan-NOTCH inhibitor 6-(4-Tert-Butylphenoxy)Pyridin-3-Amine in adult patients with locally advanced or metastatic solid tumours or hematologic malignancies.
# The study is designed as an open label, non-randomised, uncontrolled […] dose escalation study with expansion cohorts of 6-(4-Tert-Butylphenoxy)Pyridin-3-Amine administered orally on a once-daily schedule, based on a 28-day treatment cycle. The dosing will be 15, 30, 60, 120, 170, 250, 400, or 600 mg of the 6-(4-Tert-Butylphenoxy)Pyridin-3-Amine monohydrochloride salt or higher per day or alternatively 20, 40, 60, 120, 170, 250, 400, or 600 mg of the 6-(4-Tert-Butylphenoxy)Pyridin-3-Amine monohydrochloride salt or higher per day. Dosing of 15, 30, 60, 120, 170, 250, 400, or 600 mg of the 6-(4-Tert-Butylphenoxy)Pyridin-3-Amine monohydrochloride salt corresponds to dosing of 13, 26, 52, 104, 148, 217, 348, or 522 mg of 6-(4-Tert-Butylphenoxy)Pyridin-3-Amine (free base). Dosing of 20, 40, 60, 120, 170, 250, 400, or 600 mg of the 6-(4-Tert-Butylphenoxy)Pyridin-3-Amine monohydrochloride salt corresponds to dosing of 17, 35, 52, 104, 148, 217, 348, or 522 mg of 6-(4-Tert-Butylphenoxy)Pyridin-3-Amine (free base). For this study, 6-(4-Tert-Butylphenoxy)Pyridin-3-Amine monohydrochloride salt was formulated into a capsule having a drug load of 5, 10, 20, 50 and 100 mg, respectively intended to be administered orally. • Patients will meet the following criteria:
# 6-(4-Tert-Butylphenoxy)Pyridin-3-Amine is rapidly absorbed after oral administration and reaches Cmax within 1 to 2 hours of dosing. […] The elimination half-life is approximately 20 hours and 6-(4-Tert-Butylphenoxy)Pyridin-3-Amine accumulates about 2-fold with repeated daily administration.
# [4] = tested on: Notch-activated relapsed and treatment refractory T-ALL; assay: Compassionate use in a NOTCH positive relapsed refractory T-ALL patient: clinical response; conditions: free base once daily 300 to 400 to 500 mg
# Description: In a compassionate use program, a patient with Notch-activated relapsed and treatment refractory T-ALL was treated with 6-(4-Tert-Butylphenoxy)Pyridin-3-Amine (free base) once daily starting with 300 mg, increased to 400 mg, then 500 mg in addition to their ongoing anti-cancer treatment. Dose escalation was done every 3 days to reach the target dose 500 mg.
smiles,measurement,setting,value
CC(C)(C)c1ccc(Oc2ccc(N)cn2)cc1 [6-(4-Tert-Butylphenoxy)Pyridin-3-Amine],downregulation of DTX-1,[1],up to 95%
same,average NOTCH target gene downregulation compared to baseline (inhibition),[2],higher than 90%
same,time to steady state concentrations,[3]; daily dosing,within one week
same,Tmax,"[3]; human, plasma, after oral administration, read-out: time to reach Cmax",1 to 2 h
same,half-life,"[3]; human, plasma, oral, read-out: elimination half-life (converted)",~20 h
same,accumulation with repeated daily administration,"[3]; oral, daily",about 2 fold
same,plasma exposure versus dose,"[3]; oral, dose range tested",increases with increasing doses
same,saturation of absorption,"[3]; oral, dose range tested",no signs of saturated absorption
same,time to complete remission after starting dosing,[4],≤ 1 week
same,clinical response,[4]; added to ongoing anti-cancer treatment,complete remission
